Values after ≈ are worked out from the molar mass of the structure shown. Like-named read-outs stand apart in the source and are kept apart here. Ends that are not written are not given here.
Experiments:
[1] = clinical trial, AD patients, ref. [34]; cited from earlier work
Enterococcus faecalis = format: cell-based
Experimental: (§1) Bacteria were cultured aerobically in Mueller-Hinton broth (MHB), Brain and Heart Infusion broth (BHIB), or BHIB supplemented with 1% lysed horse blood and plated on Tryptone Soy Agar (TSA) plates containing 5% defibrinated sheep blood. […] Organisms were subcultured for 2 hrs to generate mid-logarithmic growth cultures for use as inoculates in experiments.
(§2) Bacteria inoculum cell densities were normalized to 5×10^5 cells/ml immediately before use photometrically and subsequently confirmed by colony count. Inoculum of C. albicans contained a cell density of 2.5×10^3 CFU/ml.
(§3) Bulk powdered peptides were first dissolved in 30% trifluoroethanol (TFE) at 1 mg/ml. […] Stock solutions at 2 mg/ml were prepared the day of experimentation from the peptide films by solubilizing a second time in either water or 20% TFE. Aβ stocks prepared in water were sonicated and insoluble peptide aggregates pelleted by centrifugation (10 min×16,000 g). Peptide concentrations in stock solutions were determined immediately before use by bicinchoninic acid (BCA) protein assay. […] For MIC experiments, peptides were serially diluted into growth media. For other experiments stocks were diluted into required working buffers. Experiments included controls for peptide buffer vehicle alone.
(§4) Experiments identified peptide MIC by broth microdilution susceptibility test in conjunction with CFU and alamar blue assays. […] Peptide MIC was taken as the lowest concentration able reduce cell growth by CFU and alamar blue assays by at least two-fold and which correlated with the visible loss of a growth button on the bottom of microtiter wells. Experiments were repeated a minimum of three times for each organism, and tests included at least three replicates for each assay condition. Experiments included control serial dilutions of buffer vehicle alone.

Candida albicans = format: cell-based
Experimental: as §1, §2, §3, §4

Pseudomonas aeruginosa = format: cell-based
Experimental: as §1, §2, §3, §4

Listeria monocytogenes = format: cell-based
Experimental: as §1, §2, §3, §4

[2] = test system: Staphylococcus epidermidis; format: cell-based
Experimental: as §1, §2, §3, §4

Streptococcus pyogenes = format: cell-based
Experimental: as §1, §2, §3, §4

12 microorganisms = assay: Antimicrobial activity against the panel of 12 microorganisms (summary); format: cell-based; conditions: summary in words of the MIC experiments
Experimental: Peptide antimicrobial activity was determined as minimal inhibitory concentration (MIC). Experiments identified peptide MIC by broth microdilution susceptibility test in conjunction with CFU and alamar blue assays. Inoculum containing mid-logarithmic phase cells was dispensed into the wells of polypropylene 96-well plates (Fisher, Pittsburgh, Pa.) containing seven two-fold dilutions of test peptide in growth media. Plates were then incubated aerobically overnight (12 to 18 hrs) at 37° C. Peptide MIC was taken as the lowest concentration able reduce cell growth by CFU and alamar blue assays by at least two-fold and which correlated with the visible loss of a growth button on the bottom of microtiter wells. Experiments were repeated a minimum of three times for each organism, and tests included at least three replicates for each assay condition. Experiments included control serial dilutions of buffer vehicle alone.

E. faecalis = E. faecalis growth curves with peptide (CFU with time); format: cell-based, Enterococcus faecalis; conditions: 25 μg/ml peptide; CFU counted with time (FIG. 1)
Experimental: Bacterial growth with time was monitored by inoculation of agar with diluted incubants and counting CFU. Representative data from six experiments is shown as mean signal of four replicates±s.e.m.
CFU assay; Serial dilutions of incubants were prepared and streaked onto the surface of agar. The agar plates were then incubated overnight at 37° C. and colonies forming units counted.

Streptococcus agalactiae = format: cell-based; conditions: ATCC 12386; BHIB/LHB; 12 hrs incubation at 37° C.
Experimental: as §1, §2, §3, §4

Streptococcus pneumoniae = format: cell-based; conditions: ATCC 49619; BHIB/LHB; 12 hrs incubation at 37° C.
Experimental: as §1, §2, §3, §4

Escherichia coli = format: cell-based; conditions: ATCC 25922; BHIB; 12 hrs incubation at 37° C.
Experimental: as §1, §2, §3, §4

Staphylococcus aureus = format: cell-based; conditions: ATCC 25923; MHB; 12 hrs incubation at 37° C.
Experimental: as §1, §2, §3, §4

Streptococcus salivarius = format: cell-based; conditions: ATCC 13419; BHIB/LHB; 12 hrs incubation at 37° C.
Experimental: as §1, §2, §3, §4

Streptococcus mitis = format: cell-based; conditions: ATCC 6249; BHIB/LHB; 12 hrs incubation at 37° C.
Experimental: as §1, §2, §3, §4

C[C@@H](C(=O)O)c1ccc(-c2ccccc2)c(F)c1 [tarenflurbil]
Rates of infection in patients receiving the drug [1]: significantly increased rates of infection

AIVVGGVMLGIIAGKNSGVDEAFFVLKQHHVEYGSDHRFEAD [reAβ42]
MIC against Enterococcus faecalis (Enterococcus faecalis; 18 h): 50 µg/mL | MIC against Candida albicans (Candida albicans; 18 h): >25 µg/mL | MIC against Pseudomonas aeruginosa (Pseudomonas aeruginosa; 18 h): >50 µg/mL | MIC against Listeria monocytogenes (Listeria monocytogenes; 18 h): >50 µg/mL | MIC against Staphylococcus epidermidis ([2]; 18 h): >50 µg/mL | MIC against Streptococcus pyogenes (Streptococcus pyogenes; 18 h): >50 µg/mL | Inhibition of microbial growth, panel of 12 microorganisms (12 microorganisms): not inhibited

DAEFGHDSGFEVRHQKLVFFAEDVGSNKGAIIGLMVGGVVIA [roAβ42]
MIC against Enterococcus faecalis (Enterococcus faecalis; 18 h): 3.13 µg/mL | MIC against Candida albicans (Candida albicans; 18 h): 0.78 µg/mL | MIC against Pseudomonas aeruginosa (Pseudomonas aeruginosa; 18 h): >50 µg/mL | MIC against Listeria monocytogenes (Listeria monocytogenes; 18 h): 6.25 µg/mL | MIC against Staphylococcus epidermidis ([2]; 18 h): 3.13 µg/mL | MIC against Streptococcus pyogenes (Streptococcus pyogenes; 18 h): >50 µg/mL | Inhibition of microbial growth, panel of 12 microorganisms (12 microorganisms): demonstrated antimicrobial activity

CC[C@H](C)[C@H](NC(=O)[C@H](CCCCN)NC(=O)[C@H](CCC(=O)O)NC(=O)[C@H](CCCCN)NC(=O)[C@H](CO)NC(=O)[C@H](CCCCN)NC(=O)[C@H](CCCNC(=N)N)NC(=O)[C@H](Cc1ccccc1)NC(=O)[C@H](Cc1ccccc1)NC(=O)[C@H](CC(=O)O)NC(=O)CNC(=O)[C@H](CC(C)C)NC(=O)[C@@H](N)CC(C)C)C(=O)NCC(=O)N[C@@H](CCCCN)C(=O)N[C@@H](CCC(=O)O)C(=O)N[C@@H](Cc1ccccc1)C(=O)N[C@@H](CCCCN)C(=O)N[C@@H](CCCNC(=N)N)C(=O)N[C@H](C(=O)N[C@H](C(=O)N[C@@H](CCC(N)=O)C(=O)N[C@@H](CCCNC(=N)N)C(=O)N[C@H](C(=O)N[C@@H](CCCCN)C(=O)N[C@@H](CC(=O)O)C(=O)N[C@@H](Cc1ccccc1)C(=O)N[C@@H](CC(C)C)C(=O)N[C@@H](CCCNC(=N)N)C(=O)N[C@@H](CC(N)=O)C(=O)N[C@@H](CC(C)C)C(=O)N[C@H](C(=O)N1CCC[C@H]1C(=O)N[C@@H](CCCNC(=N)N)C(=O)N[C@H](C(=O)N[C@@H](CCC(=O)O)C(=O)N[C@@H](CO)C(=O)O)[C@@H](C)O)C(C)C)[C@@H](C)CC)C(C)C)[C@@H](C)CC [LL-37]
Mode of action on E. faecalis growth (bacteriostatic or bactericidal) (E. faecalis): potent bactericidal activity | MIC against Enterococcus faecalis (Enterococcus faecalis; ATCC 29212, BHIB, 18 hrs incubation at 37° C.): 6.25 µg/mL (≈ 1.39 µM) | MIC against Streptococcus agalactiae (Streptococcus agalactiae): 12.5 µg/mL (≈ 2.78 µM) | MIC against Streptococcus pneumoniae (Streptococcus pneumoniae): 1.56 µg/mL (≈ 0.347 µM) | MIC against Candida albicans (Candida albicans; ATCC 10231, RPMI-1640, 18 hrs incubation at 37° C.): 6.25 µg/mL (≈ 1.39 µM) | MIC against Escherichia coli (Escherichia coli): 1.56 µg/mL (≈ 0.347 µM) | MIC against Pseudomonas aeruginosa (Pseudomonas aeruginosa; ATCC 27853, BHIB, 18 hrs incubation at 37° C.): 6.25 µg/mL (≈ 1.39 µM) | MIC against Staphylococcus aureus (Staphylococcus aureus): 6.25 µg/mL (≈ 1.39 µM) | MIC against Streptococcus salivarius (Streptococcus salivarius): 50 µg/mL (≈ 11.1 µM) | MIC against Listeria monocytogenes (Listeria monocytogenes; ATCC 19112, BHIB, 18 hrs incubation at 37° C.): 25 µg/mL (≈ 5.56 µM) | MIC against Staphylococcus epidermidis ([2]; ATCC 12228, BHIB, 18 hrs incubation at 37° C.): 25 µg/mL (≈ 5.56 µM) | MIC against Streptococcus pyogenes (Streptococcus pyogenes; ATCC 19615, BHIB/LHB, 18 hrs incubation at 37° C.): 6.25 µg/mL (≈ 1.39 µM) | MIC against Streptococcus mitis (Streptococcus mitis): 6.25 µg/mL (≈ 1.39 µM)

recAβ42: Recombinant human Aβ42 purchased from rPeptide
Inhibition of microbial growth, panel of 12 microorganisms (12 microorganisms): Equivalent findings
